According to ChEMBL document CHEMBL1201862, “PubChem BioAssay data set” (2004):
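Cultured in 96-well plates, cells were exposed to test compound for 48 hours across five concentrations. At the GI50, growth is halved.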 Activity calls are given as the source filed them. Rule as the data show it: active = GI50 up to about 1.1 µM and inactive = higher.

Columns and labels:
Test in all cases: NCI tumour cell line growth inhibition, 48 h
NCI-H460 = test system: NCI-H460
MOLT-4 = test system: MOLT-4
OVCAR-4 = test system: OVCAR-4
RPMI-8226 = test system: RPMI-8226
HOP-62 = test system: HOP-62
SF-295 = test system: SF-295
DMS-273 = test system: DMS-273
HT-29 = test system: HT-29
SK-OV-3 = test system: SK-OV-3
EKVX = test system: EKVX
SNB-75 = test system: SNB-75
KM-20L2 = test system: KM-20L2
Malme-3M = test system: Malme-3M
HOP-92 = test system: HOP-92
HCT-116 = test system: HCT-116
SNB-19 = test system: SNB-19
SK-MEL-5 = test system: SK-MEL-5
IGROV-1 = test system: IGROV-1
KM12 = test system: KM12
UACC-257 = test system: UACC-257
MCF7 = test system: MCF7
SN12C = test system: SN12C
HL-60 = test system: HL-60
SF-268 = test system: SF-268
OVCAR-3 = test system: OVCAR-3
NCI-H23 = test system: NCI-H23
A549 = test system: A549
SNB-78 = test system: SNB-78
LOX IMVI = test system: LOX IMVI
OVCAR-5 = test system: OVCAR-5
SF-539 = test system: SF-539
DMS-114 = test system: DMS-114
SK-MEL-28 = test system: SK-MEL-28
XF498 = test system: XF498
HCT-15 = test system: HCT-15
NCI-H226 = test system: NCI-H226
U-251 = test system: U-251
CCRF-CEM = test system: CCRF-CEM
COLO 205 = test system: COLO 205
OVCAR-8 = test system: OVCAR-8
A498 = test system: A498
K562 = test system: K562
SW-620 = test system: SW-620
RXF 393 = test system: RXF 393
SK-MEL-2 = test system: SK-MEL-2
M19-MEL = test system: M19-MEL
NCI/ADR-RES = test system: NCI/ADR-RES
NCI-H522 = test system: NCI-H522
DLD-1 = test system: DLD-1
UO-31 = test system: UO-31
HOP-18 = test system: HOP-18
HCC 2998 = test system: HCC 2998
786-0 = test system: 786-0
SR = test system: SR
M14 = test system: M14
LXFL 529 = test system: LXFL 529
TK-10 = test system: TK-10
UACC-62 = test system: UACC-62
CAKI-1 = test system: CAKI-1

`Nc1cc(S(=O)(=O)O)cc2cc(S(=O)(=O)O)c(/N=N/c3ccc(-c4ccc(/N=N/c5c(S(=O)(=O)O)cc6cc(S(=O)(=O)O)cc(N)c6c5O)cc4)cc3)c(O)c12` was tested, and the GI50 (NCI-H460) was > 100 µM (inactive), the GI50 (MOLT-4) was > 100 µM (inactive) and the GI50 (OVCAR-4) was > 100 µM (inactive). For the same compound, the GI50 (RPMI-8226) was > 100 µM (inactive), the GI50 (HOP-62) was > 100 µM (inactive) and the GI50 (SF-295) was > 100 µM (inactive). The GI50 (DMS-273) was > 100 µM (inactive), the GI50 (HT-29) was > 100 µM (inactive) and the GI50 (SK-OV-3) was > 100 µM (inactive). For the same compound, the GI50 (EKVX) was > 100 µM (inactive), the GI50 (SNB-75) was > 100 µM (inactive) and the GI50 (KM-20L2) was > 100 µM (inactive). The GI50 (Malme-3M) was > 100 µM (inactive), the GI50 (HOP-92) was > 71.9 µM (inactive) and the GI50 (HCT-116) was > 100 µM (inactive). The GI50 (SNB-19) was > 100 µM (inactive), the GI50 (SK-MEL-5) was > 100 µM (inactive) and the GI50 (IGROV-1) was > 100 µM (inactive). For the same compound, the GI50 (KM12) was > 100 µM (inactive), the GI50 (UACC-257) was > 100 µM (inactive) and the GI50 (MCF7) was > 100 µM (inactive). For the same compound, the GI50 (SN12C) was > 100 µM (inactive), the GI50 (HL-60) was > 100 µM (inactive) and the GI50 (SF-268) was > 100 µM (inactive). For the same compound, the GI50 (OVCAR-3) was > 100 µM (inactive), the GI50 (NCI-H23) was > 100 µM (inactive) and the GI50 (A549) was > 100 µM (inactive). For the same compound, the GI50 (SNB-78) was > 100 µM (inactive), the GI50 (LOX IMVI) was > 100 µM (inactive) and the GI50 (OVCAR-5) was > 100 µM (inactive). For the same compound, the GI50 (SF-539) was > 100 µM (inactive), the GI50 (DMS-114) was > 100 µM (inactive) and the GI50 (SK-MEL-28) was > 100 µM (inactive). The GI50 (XF498) was > 100 µM (inactive), the GI50 (HCT-15) was over 100 µM and the GI50 (NCI-H226) was > 100 µM (inactive). For the same compound, the GI50 (U-251) was > 100 µM (inactive), the GI50 (CCRF-CEM) was > 100 µM (inactive) and the GI50 (COLO 205) was > 100 µM (inactive). The GI50 (OVCAR-8) was > 100 µM (inactive), the GI50 (A498) was > 100 µM (inactive) and the GI50 (K562) was > 100 µM (inactive). The GI50 (SW-620) was > 100 µM (inactive), the GI50 (RXF 393) was > 69.5 µM (inactive) and the GI50 (SK-MEL-2) was > 100 µM (inactive). The GI50 (M19-MEL) was > 100 µM (inactive), the GI50 (NCI/ADR-RES) was > 100 µM (inactive) and the GI50 (NCI-H522) was > 100 µM (inactive). For the same compound, the GI50 (DLD-1) was > 100 µM (inactive), the GI50 (UO-31) was > 100 µM (inactive) and the GI50 (HOP-18) was > 100 µM (inactive). For the same compound, the GI50 (HCC 2998) was > 100 µM (inactive).
For `CCc1ccc(Nc2cc(=O)[nH]c(=S)n2C)cc1`, the GI50 (NCI-H460) was > 100 µM (inactive), the GI50 (MOLT-4) was > 100 µM (inactive) and the GI50 (OVCAR-4) was > 100 µM (inactive). The GI50 (RPMI-8226) was > 100 µM (inactive), the GI50 (786-0) was > 100 µM (inactive) and the GI50 (HOP-62) was > 100 µM (inactive). For the same compound, the GI50 (SF-295) was > 100 µM (inactive), the GI50 (SR) was > 100 µM (inactive) and the GI50 (DMS-273) was > 100 µM (inactive). For the same compound, the GI50 (M14) was > 100 µM (inactive), the GI50 (HT-29) was > 100 µM (inactive) and the GI50 (SK-OV-3) was > 100 µM (inactive). For the same compound, the GI50 (EKVX) was 88.3 µM (inactive), the GI50 (SNB-75) was 46.3 µM (inactive) and the GI50 (LXFL 529) was > 100 µM (inactive). The GI50 (KM-20L2) was > 100 µM (inactive), the GI50 (Malme-3M) was > 100 µM (inactive) and the GI50 (HOP-92) was > 100 µM (inactive). For the same compound, the GI50 (HCT-116) was > 100 µM (inactive), the GI50 (SNB-19) was > 100 µM (inactive) and the GI50 (SK-MEL-5) was > 100 µM (inactive). For the same compound, the GI50 (IGROV-1) was > 100 µM (inactive), the GI50 (KM12) was > 100 µM (inactive) and the GI50 (UACC-257) was > 100 µM (inactive). The GI50 (SN12C) was > 100 µM (inactive), the GI50 (HL-60) was > 100 µM (inactive) and the GI50 (SF-268) was > 100 µM (inactive). For the same compound, the GI50 (TK-10) was > 100 µM (inactive), the GI50 (OVCAR-3) was > 100 µM (inactive) and the GI50 (NCI-H23) was > 100 µM (inactive). The GI50 (A549) was > 100 µM (inactive), the GI50 (SNB-78) was > 100 µM (inactive) and the GI50 (LOX IMVI) was > 100 µM (inactive). The GI50 (OVCAR-5) was > 100 µM (inactive), the GI50 (SF-539) was > 100 µM (inactive) and the GI50 (DMS-114) was > 100 µM (inactive). The GI50 (XF498) was > 100 µM (inactive), the GI50 (HCT-15) was over 100 µM and the GI50 (NCI-H226) was > 100 µM (inactive). The GI50 (U-251) was > 100 µM (inactive), the GI50 (UACC-62) was > 100 µM (inactive) and the GI50 (CCRF-CEM) was > 100 µM (inactive). For the same compound, the GI50 (COLO 205) was > 100 µM (inactive), the GI50 (OVCAR-8) was > 100 µM (inactive) and the GI50 (A498) was > 100 µM (inactive). For the same compound, the GI50 (K562) was > 100 µM (inactive), the GI50 (SW-620) was > 100 µM (inactive) and the GI50 (RXF 393) was > 100 µM (inactive). For the same compound, the GI50 (SK-MEL-2) was > 100 µM (inactive), the GI50 (M19-MEL) was > 100 µM (inactive) and the GI50 (CAKI-1) was > 100 µM (inactive). For the same compound, the GI50 (NCI-H522) was > 100 µM (inactive), the GI50 (DLD-1) was > 100 µM (inactive) and the GI50 (UO-31) was > 100 µM (inactive). The GI50 (HOP-18) was > 100 µM (inactive).
